What was measured:
H. influenzae NfsB [1] = target: T1, H. influenzae NfsB (Haemophilus influenzae, UniProt Q57431); experiment: Michaelis-Menten kinetics by NADPH oxidation; assay type: biochemical
H. influenzae NfsB [2] = target: T1, H. influenzae NfsB
H. influenzae NfsB [3] = target: T1, H. influenzae NfsB; experiment: NAD; assay type: biochemical
H. influenzae NfsB [4] = target: T1, H. influenzae NfsB; experiment: inhibition of chloramphenicol reduction by purified enzyme, monitored at […] nm; assay type: biochemical
H. influenzae NfsB [5] = target: T1, H. influenzae NfsB; experiment: TLC of flavin released from heat-denatured purified enzyme; assay type: binding
H. influenzae NfsB [6] = target: T1, H. influenzae NfsB; remark: listed apart in the source
[7] = tested on: O=C(N[C@H](CO)[C@H](O)c1ccc([N+](=O)[O-])cc1)C(Cl)Cl; experiment: purified protein; assay type: biochemical, Haemophilus influenzae; settings: FMN, NADPH

T1 sequence (Q57431 whole entry): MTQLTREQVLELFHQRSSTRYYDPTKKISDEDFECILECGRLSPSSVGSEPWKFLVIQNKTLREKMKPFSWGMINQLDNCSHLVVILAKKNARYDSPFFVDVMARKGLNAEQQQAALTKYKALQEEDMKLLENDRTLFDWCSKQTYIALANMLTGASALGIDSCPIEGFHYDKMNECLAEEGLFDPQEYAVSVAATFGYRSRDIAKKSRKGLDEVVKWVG

Molecule: O=[N+]([O-])c1cccc(O)c1 [3-nitrophenol]
- Michaelis-Menten kinetics by NADPH oxidation (kcat/KM) (H. influenzae NfsB [1]): 61800 M⁻¹ s⁻¹

Molecule: O=[N+]([O-])c1ccc(O)cc1 [4-nitrophenol]
- enzyme turnover monitored at 450 nm; kcat/KM not determined (H. influenzae NfsB [2]): All three of these compounds also acted as substrates, with menadione showing relatively high activity and 4-nitrophenol showing relatively low

Molecule: NC(=O)C1=CN([C@@H]2O[C@H](COP(=O)(O)OP(=O)(O)OC[C@H]3O[C@@H](n4cnc5c(N)ncnc54)[C@H](OP(=O)(O)O)[C@@H]3O)[C@@H](O)[C@H]2O)C=CC1 [NADPH]
- NAD(P)H oxidation at 340 nm with purified enzyme (H. influenzae NfsB [3]): requires NADPH as a cofactor and does not utilize NADH

Molecule: O=c1oc2ccccc2c(O)c1Cc1c(O)c2ccccc2oc1=O [dicoumarol]
- IC50 (H. influenzae NfsB [4]): 120 µM

Molecule: Cc1cc2nc3c(=O)[nH]c(=O)nc-3n(C[C@H](O)[C@H](O)[C@H](O)COP(=O)(O)O)c2cc1C [flavin mononucleotide]
- TLC of flavin released from heat-denatured purified enzyme (H. influenzae NfsB [5]): tightly binds a flavin cofactor, most likely flavin mononucleotide (FMN)

Molecule: CC1=CC(=O)c2ccccc2C1=O [menadione]
- Michaelis-Menten kinetics by NADPH oxidation (kcat/KM) (H. influenzae NfsB [1]): 79340 M⁻¹ s⁻¹

Molecule: O=C1CN(/N=C/c2ccc([N+](=O)[O-])o2)C(=O)N1 [nitrofurantoin]
- Michaelis-Menten kinetics at 420 nm (kcat/KM) (H. influenzae NfsB [6]): 242890 M⁻¹ s⁻¹

Molecule: H. influenzae NfsB (Haemophilus influenzae Rd KW20)
- Km [7]: 500 µM
